According to PMC10532587, “An Investigation of Structure–Activity Relationships and Cell Death Mechanisms of the Marine Alkaloids Discorhabdins in Merkel Cell Carcinoma Cells” (Marine Drugs, 2023):
Read-outs that look alike come from different tables or passages of the source.

Tests used:
HaCaT = assay: Cell survival by CellTiterGlo, control cells; type: cell-based, human; conditions: for AUC (arbitrary units) HaCaT: area under the dose-response curve, control cells; for IC50: Homo sapiens, HaCaT, control skin cell line, CellTiterGlo, normalized to DMSO, read-out: IC50 (nM) HaCaT
MCC13 = assay: Cell survival by CellTiterGlo, VN-MCC line MCC13; type: cell-based; conditions: for AUC (arbitrary units) MCC13: area under the dose-response curve; for IC50: CellTiterGlo, normalized to DMSO
MCC26 = assay: Cell survival by CellTiterGlo, VN-MCC line MCC26; type: cell-based; conditions: for AUC (arbitrary units) MCC26: area under the dose-response curve; for IC50: CellTiterGlo, normalized to DMSO
UISO = assay: Cell survival by CellTiterGlo, VN-MCC line UISO; type: cell-based; conditions: for AUC (arbitrary units) UISO: area under the dose-response curve; for IC50: CellTiterGlo, normalized to DMSO
MKL-1 = assay: Cell survival by CellTiterGlo, VP-MCC line MKL-1; type: cell-based; conditions: for IC50: MKL-1, CellTiterGlo; for AUC (arbitrary units) MKL-1: area under the dose-response curve
Waga = assay: Cell survival by CellTiterGlo, VP-MCC line Waga; type: cell-based; conditions: for AUC (arbitrary units) WaGa: area under the dose-response curve; for IC50: CellTiterGlo, normalized to DMSO
[1] = tested on: control (HaCaT) and Merkel cell carcinoma cell lines; assay: Cell survival by CellTiterGlo, all seven cell lines; type: cell-based; conditions: for IC50: Homo sapiens, HaCaT
Method: Three methods were employed for assessment of MCC and control cell survival/viability after discorhabdin treatment, two metabolic assays and a cell permeability assay. For all three methods, cells were plated in 384-well plates at 2500 cells/well and treated with various concentrations of discorhabdins for various time periods. CellTiterGlo^TM (Promega, Madison, WI, USA) measures cellular ATP content and was used to estimate potency of discorhabdins in cell viability assays as previously described. Continuous monitoring of metabolic activity was accomplished using a cellular reducing potential luminescence assay, the RealTime-Glo^TM MT Cell Viability Assay (Promega, Madison, WI, USA) according to manufacturer’s instructions. Loss of cell plasma membrane integrity was assessed using a cell-impermeant molecule that becomes fluorescent upon binding DNA [82] in parallel with apoptosis detection per manufacturer’s instructions (RealTimeGlo^TM Annexin V Apoptosis and Necrosis Assay-Promega). Two additional assays of apoptotic cell death were also used. Caspase activation in response to treatment of MCC cells by discorhabdins or bortezomib (as a positive control) was measured using the CaspaseGlo® 3/7 Assay (Promega, Madison, WI, USA) according to the manufacturer’s instructions at multiple time points. Inhibition of apoptotic cell death was investigated using pre-treatment of cells with for 1 h with the pan-caspase inhibitor Z-VAD-FMK (Enzo Life Sciences, Farmingdale, NY, USA) followed by treatment with discorhabdins or bortezomib and estimation of cell viability as outlined above.
In order to compare responses among all of the discorhabdins and cell lines (98 combinations), dose–response curves were generated using identical discorhabdin dilution series. GraphPad Prism 8 (San Diego, CA, USA) software was utilized to graph dose–response data and to calculate IC50 values and area under the dose–response curves (AUC) along with 95% confidence interval estimates using four-parameter logistic nonlinear regression analysis. For further analysis and comparisons, AUC for each cell line/discorhabdin pair was visualized in a heatmap generated in R version 1.3.1073 (R Core Team (2013). R: A language and environment for statistical computing. R Foundation for Statistical Computing, Vienna, Austria, http://www.R-project.org/ (accessed on 12 January 2023).
Figure S39: Activity of discorhabdins against M CC cell lines.
The indicated discorh abd ins were ass essed for th eir ability to affect surviv al of control (H aCaT) and Merkel cell carcino ma cell lines (VN-MCC: MCC13, MCC26, UISO and VP -MCC: MKL-1, MKL-2, Wag a). Cells were plat ed at 2500 cells/well and compounds the next day. Cell survival was estimated by CellTiterGlo (normalized to untreated (DMSO) cells on the same plate). Structures w ere o btained from the supplier and/or the PubChem database or as described in the text. Number in bold in ( ) refers to structures in Figure 1 in the text. Curves were plotted and IC50 values and 95% confidence interval calculated by GraphPad software. […]

MKL-2 = assay: Cell survival by CellTiterGlo, VP-MCC line MKL-2; type: cell-based; conditions: for IC50: CellTiterGlo, normalized to DMSO; for AUC (arbitrary units) MKL-2: area under the dose-response curve
[2] = CellTiterGlo, 10 µM highest concentration tested, read-out: IC50, all cell lines
[3] = essentially inactive compounds, read-out: average IC50 against all the cell lines
[4] = VP-MCC, normalized to DMSO, read-out: IC50 (nM) MKL-1

| SMILES | AUC (arbitrary units) HaCaT (HaCaT) [arbitrary units] | AUC (arbitrary units) MCC13 (MCC13) [arbitrary units] | AUC (arbitrary units) MCC26 (MCC26) [arbitrary units] | AUC (arbitrary units) UISO (UISO) [arbitrary units] | IC50 (MKL-1; printed in brackets beside the all-cell-lines bound, read-out: IC50 MKL-1) [nM] | AUC (arbitrary units) MKL-1 (MKL-1; VP-MCC) [arbitrary units] | AUC (arbitrary units) WaGa (Waga) [arbitrary units] | IC50 [1, 2] [µM] | IC50 [1, 3] [µM] | IC50 (HaCaT) [nM] | IC50 (MCC13) [nM] | IC50 (MCC26) [nM] | IC50 (UISO) [nM] | IC50 (MKL-1; [4]) [nM] | IC50 (MKL-2) [nM] | AUC (arbitrary units) MKL-2 (MKL-2) [arbitrary units] | IC50 (Waga) [nM] | activity on cell viability, in words ([1]; MCC and control cell lines) |
| --- | --- | --- | --- | --- | --- | --- | --- | --- | --- | --- | --- | --- | --- | --- | --- | --- | --- | --- |
| O=C1C=CC2(C=C1)CCNC1=C2C2=NCCc3c[nH]c(c32)C1=O [Compound 21, didebromodiscorhabdin C] | 952.2 | 883 | 866.1 | 851.9 | > 5000 | 682.4 | 973.8 | > 10 | > 5 | – | – | – | – | – | – | – | – | – |
| O=C1C2=C3C4=[N+](CCc5c[nH]c1c54)[C@H]1C[C@@]34C[C@@H](N2)SC4=CC1=O [Compound 11, (+)-(2S,6R,8S) discorhabdin D] | 715.8 | 540.6 | 653.2 | 423.9 | – | 60.49 | 216.6 | – | – | > 6000 | 5000 | 5850 | 3620 | 497 | 865 | 143.2 | 1810 | – |
| O=C(O)CNC1C2C(=O)C=C3SC4CC31C1=C(N4)C(=O)c3[nH]cc4c3C1=[N+]2CC4 (single isomer, unassigned; (-)) [Compound 13] | 909 | 478.7 | 719.3 | 436.7 | – | 83.43 | 200.7 | – | – | > 10000 | 3820 | > 6000 | 3420 | 682 | 2910 | 391.1 | 1560 | – |
| Cn1cc2c3c1C(=O)C1=C(C3=NCC2)[C@]2(C=CC(=O)C(Br)=C2)CCN1 [Compound 23, (+)-(6S)-N-13-methyldiscorhabdin E] | 319.6 | 155.7 | 306.3 | 90.78 | – | 23.33 | 65.1 | – | – | 2980 | 1290 | 2880 | 781 | 186 | – | – | 546 | – |
| O=C1C(Br)=CC2(C=CNC3=C2C2=NCCc4c[nH]c(c42)C3=O)C=C1Br [Compound 20, 7,8-dehydrodiscorhabdin C] | 940.1 | 694.4 | 815.8 | 542.4 | – | 376.3 | 661 | – | > 5 | > 10000 | 7480 | ~10000 | 5570 | 3260 | – | – | 7430 | – |
| O=C1C=C(S(=O)(=O)O)[C@@]2(C=CNC3=C2C2=NCCc4c[nH]c(c42)C3=O)C=C1Br [Compound 9, (+)-(6S) sulphonyl-7,8-dehydrodiscorhabdin E] | 911.5 | 882.5 | 793.9 | 914.8 | – | 917.6 | 949.7 | > 10 | > 5 | – | – | – | – | – | – | – | – | practically inactive |
| O=C1C2=C(C3=NCCc4c[nH]c1c43)C1(C=C(Br)C(O)C(Br)=C1)CCN2 (stereo not shown) [Compound 16, 3-dihydrodiscorhabdin C] | 454.5 | 404 | 543.3 | 375.8 | – | 195.9 | 370.5 | – | – | 4130 | 3470 | 4700 | 3090 | 1630 | 1940 | 277.4 | 3200 | – |
| O=C1C2=C(C3=NCCc4c[nH]c1c43)c1c(cc(Br)c(O)c1Br)CCN2 [Compound 24, discorhabdin C phenol] | 884.9 | 528.6 | 708.7 | 493.2 | – | 279.7 | 611.2 | – | – | > 10000 | 4640 | 6920 | 4210 | 2330 | – | – | 5460 | – |
| Cn1cnc(SC2=CC(=O)C=C3S[C@H]4C[C@@]23C2=C(N4)C(=O)c3[nH]cc4c3C2=NCC4)c1C[C@H](N)C(=O)O (relative stereo) [Compound 5, (+)-(6S,8S,7′S*) discorhabdin K] | 944.5 | 837.7 | 841.3 | 767.7 | – | 335 | 660.5 | – | > 5 | > 10000 | > 10000 | > 10000 | 8300 | 3030 | – | – | 6150 | – |
| O=C1C=C2S[C@H]3C[C@]2(C=C1Br)C1=C(N3)C(=O)c2[nH]cc3ccnc1c23 [Compound 3, (+)-(6S,8S) discorhabdin Q] | 604.2 | 419.1 | 432.3 | 447.9 | – | 389.4 | 405.1 | – | – | 5450 | 3500 | 3760 | 3850 | 3440 | 2040 | 350.1 | 3290 | – |
| CSC1=CC(=O)C=C2S[C@H]3C[C@@]12C1=C(N3)C(=O)c2[nH]cc3c2C1=NCC3 [Compound 7, (+)-(6R,8S) thiomethyldiscorhabdin G*/I] | 745.5 | 495.1 | 638.2 | 360.8 | – | 144.5 | 321.6 | – | – | 7960 | 4500 | 7890 | 3270 | 1230 | – | – | 2990 | – |
